{"source": "patent US20100022444A1", "about": "“COMBINATION THERAPY FOR MODULATION OF ACTIVITY AND DEVELOPMENT OF CELLS AND TISSUES” (BodyBio, Inc., priority 2008, published 2010)", "origin": "cited, not measured here", "system": "mouse model of Bulbar ALS", "conditions": "oral administration", "data": [{"smiles": "CCCC(=O)[O-].[Na+]", "note": "[sodium butyrate]", "values": [{"measurement": "acetylation of nuclear histone in neural tissues", "result": "increased acetylation of nuclear histone in neural tissues"}, {"measurement": "neurological phenotypes", "result": "successfully ameliorated neurological phenotypes"}]}]}
